Paper PMC3293629 (Nature Communications, 2012)
Where two headings read alike, the source gives them in different places.

What was measured:
[1] = tested on: HA1.7, F11 and HA-C6 TCRs; test: SPR equilibrium binding of HA1.7, F11 and HA-C6 TCRs, combined; set-up: species or system human; details: Arg at P10 or P11
[2] = tested on: TRB clonotypes of tetramer-sorted CD4^+ T cells; type: cell-based, human
[3] = tested on: CD4^+ T cells binding the HLA-DR1/HA305−320 tetramer; type: cell-based, human
[4] = tested on: Flu1-specific clone HA1.7; test: IFN-γ ELISpot, other Flu1-specific clones; type: cell-based, human; details: Fig. 1c, peptide titration, compared with Flu1
[5] = tested on: CD4^+ HLA-DR1/HA305−320 tetramer-positive cells; type: cell-based, human

Row | Sequence | increase in TCR binding affinity [1] | Freq. of clonotype ([2]; TRBV 5–6, CDR3 […], TRBJ 1–2) | Freq. of clonotype ([2]; TRBV 12–3/4, CDR3 […], TRBJ 1–5) | clonotypic composition, repeat experiment versus first (in words) ([2]; same donor, Chi square 0.72, P=0.70, data not shown) | tetramer-positive expansion, % of CD3^+ T cells ([3]; short-term T-cell line primed with peptide, HLA-DR1/HA305−320 tetramer) | responsiveness to altered peptides, other clones (in words) [4] | clonotypic composition, repeat experiment versus first (in words) [2] | tetramer-positive expansion, % of CD3^+ T cells [3] | number of expanded CD4^+ HLA-DR1/HA305−320 tetramer-positive cells [5]
1 | PKYVKQNTLKLAR [Flu3] | > 2 fold | 69.70% | 30.30% | no significant difference | 28.7 % of CD3^+ T cells | striking increase in responsiveness | – | – | –
2 | PKYVKQNTLKLAT [Flu1, reference compound] | – | – | – | – | – | – | no significant difference | 19.4 % of CD3^+ T cells | ≥ 5×10^4 cells
